Measurements published in patent publication US20200384013A1, “COMPOSITION FOR IMPROVEMENT OF SYMPTOMS OF SPINAL CORD INJURY” (MiZ Company Limited, priority 2019, published 2020).

What was measured:
[1] = compared with H2; stated as known; cited from earlier work
[2] = tested on: symptoms of cervical spine/cervical cord injury
Method: They restored consciousness about a week after the accident.
Immediately before inhalation of hydrogen gas 6 years after the accident, they went to work in the afternoon 4 or 5 days a week, and stayed at home throughout a day when they felt ill. Further, they occasionally saw a doctor of psychiatry.
About 6 years after the accident, the patient underwent inhalation of hydrogen (hydrogen inhalation equipment: MHG-2000a Type, hydrogen concentration: 6 to 7.5%, hydrogen gas production rate: 140 mL/min, MiZ Company Limited (Kanagawa, Japan) over a period from Oct. 4, 2018 to May 12, 2019. Hydrogen was aspirated twice a day, once in the morning and once in the afternoon, for a total of 2 to 7.5 hours (an average of 3.3 hours a day), and as symptoms, pain, disordered sleep, decreased appetite, physical fatigue, mental fatigue, nervous fatigue, burning sensation on the back and foot spasticity were evaluated on Face Pain Scale (FPS; scale: 0 to 5) for about 7 months.
The FAS scales in FIGS. 1 to 5 indicate how the state changed after inhalation as compared to the state before inhalation. […] In FIGS. 1 to 5, the number of scores (e.g. 0 to 3) was counted for each of the periods, and the ratio (%) of the scores in each item was calculated. In the diagrams, the numbers shown outside the table represent the total numbers of respective scores.
Further, on May 13, 2019, the patient started inhalation of hydrogen using hydrogen gas inhalation equipment for professional use (hydrogen concentration: 6 to 7.5%, hydrogen gas production rate: 1,120 mL/min, MiZ Company Limited) instead of the hydrogen inhalation equipment MHG-2000a Type.
FIGS. 1 to 5 show the results of counting over a period from Oct. 4, 2018 to Feb. 14, 2019.
The patient recorded the FAS scores as well as their feeling before and after inhalation on paper record forms as will be described below.

[3] = normal temperature and normal pressure; also printed as 1.6 mg/L; cited from earlier work
[4] = tested on: injured nerve cells of the spinal cord / spinal cord-injured animal model; settings: high-concentration hydrogen of, for example, 50% or more; X. Chen 2018, C. Chen 2010; cited from earlier work

SMILES | superoxide eliminating action [1] | FAS “4” and FAS “5” scores ([2]; Oct. 4, 2018 to Feb. 14, 2019, all items, hydrogen 6 to 7.5%, 140 mL/min) | improvement in pain, sleep, appetite, physical fatigue, mental fatigue and nervous fatigue (Face Pain Scale scores) ([2]; Oct. 4 to Oct. 31, 2018, inhalation, hydrogen 6 to 7.5%, 140 mL/min, average 3.3 hours a day, FAS 0 and 1 scores recorded) | improvement in sensation on the back and improvement in foot spasticity (Face Pain Scale scores) ([2]; Oct. 4 to Oct. 31, 2018, inhalation, hydrogen 6 to 7.5%, 140 mL/min, FAS 2 and 3 scores, occasionally 1) | Face Pain Scale scores, all items, before against after inhalation ([2]; from May 13, 2019, equipment for professional use, hydrogen 6 to 7.5%, 1,120 mL/min) | ratio of FAS “1” scores ([2]; in and after November 2018, against inhalation time, hydrogen 6 to 7.5%, 140 mL/min) | FAS score recorded in any of the items ([2]; on and after Dec. 1, 2018, continuous inhalation, hydrogen 6 to 7.5%, 140 mL/min, scale 0 to 5) | body temperature and sweating reported by the patient ([2]; record May 13, 2019, equipment 1,120 mL/min, hydrogen 6 to 7.5%) | patient's recorded feeling (spasticity, peripheral nerve, metabolism, flow of blood, induction of sleep) ([2]; record May 13, 2019, equipment 1,120 mL/min, hydrogen 6 to 7.5%, compared with before) | concentration of hydrogen dissolved in water [3] | nerve cells of the spinal cord [4] | oxidative stress [4]
[2H][2H] [D2, deuterium] | higher than that of H2 |  |  |  |  |  |  |  |  |  |  | 
[HH] [hydrogen gas, molecular hydrogen] |  | not recorded at all | good improvement tendency | the improvement tendency was unknown or became worse | improvement occurred in all the items | tended to increase as the inhalation time increased | 3 | the body temperature rises, and thus sweating cannot be stopped | a more potent effect is exhibited | about 1.6 ppm | the nerve cells of the spinal cord were protected | oxidative stress was suppressed
